Experimental data published in ChEMBL document CHEMBL1130645, “Synthesis and evaluation of artificial taxoids with antitumor and multi-drug resistance reversing activities” (1998).

Legend:
[1] = species: Homo sapiens; test: Compound was evaluated for inhibition of tumor cell growth using sulforhodamine-B assay in human BSY-1 cell.; format: functional
[2] = Compound was evaluated for vincristine accumulation in ovarian MDR cancer cells (2780AD) at a concentration of 10 ug/mL.; format: functional, Homo sapiens
[3] = Compound was evaluated for vincristine accumulation in ovarian MDR cancer cells (2780AD) at a concentration of 1.0 ug/mL.; format: functional, Homo sapiens
[4] = system: P388; test: Compound was evaluated for inhibition of tumor cell growth using sulforhodamine-B assay in mouse […] p338 cell line; format: functional
[5] = Compound was evaluated for inhibition of tumor cell growth using sulforhodamine-B assay in 38 human cell lines; format: functional

| SMILES | GI50 [1] | Control [2] | Control [3] | GI50 [4] | GI50 [5] |
| --- | --- | --- | --- | --- | --- |
| CC1=C2[C@@H](Sc3ccccc3)[C@H](OCCO)C3=C([C@H](OCc4ccccc4)[C@](O)(C[C@@H]1OC(=O)[C@H](O)[C@@H](NCc1ccccc1)c1ccccc1)C2(C)C)[C@@](C)(O)CCC3 | 9.5 µM | 217% | 151% |  |  |
| CC(=O)O[C@@]1(C)CCCC2=C1[C@H](OCc1ccccc1)[C@]1(O)C[C@H](OC(=O)[C@H](O)[C@@H](NCc3ccccc3)c3ccccc3)C(C)=C([C@@H](Sc3ccccc3)[C@@H]2OCCO)C1(C)C |  | 102% | 80% | 10 µM | 10 µM |
